Assay results taken from patent US9931347B2, “Pharmaceutical compound” (IOmet Pharma Ltd., priority 2013, dated 2018).

target: T1, TDO (A172 human glioblastoma cells) (Homo sapiens, UniProt P48775); assay: A172 Kynurenine cell based assay; conditions: 500 μM L-tryptophan, 48 hours, kynurenine by Erhlich's reagent
T1 construct: This assay utilised cancer cells which expressed either TDO or IDO; endogenous in cells; host or cells: A172 human glioblastoma cells
How it was run: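 Kynurenine released into the supernatant was quantified by absorbance at 490 nm after 5 min with Erhlich's reagent. A172 cells were seeded at 30,000/well and exposed to test compound for 48 hours at 37° C. in phenol red-free RPMI containing 500 μM L-tryptophan, 10% FCS and 2 mM L-glutamine.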

T1 sequence (P48775 whole entry): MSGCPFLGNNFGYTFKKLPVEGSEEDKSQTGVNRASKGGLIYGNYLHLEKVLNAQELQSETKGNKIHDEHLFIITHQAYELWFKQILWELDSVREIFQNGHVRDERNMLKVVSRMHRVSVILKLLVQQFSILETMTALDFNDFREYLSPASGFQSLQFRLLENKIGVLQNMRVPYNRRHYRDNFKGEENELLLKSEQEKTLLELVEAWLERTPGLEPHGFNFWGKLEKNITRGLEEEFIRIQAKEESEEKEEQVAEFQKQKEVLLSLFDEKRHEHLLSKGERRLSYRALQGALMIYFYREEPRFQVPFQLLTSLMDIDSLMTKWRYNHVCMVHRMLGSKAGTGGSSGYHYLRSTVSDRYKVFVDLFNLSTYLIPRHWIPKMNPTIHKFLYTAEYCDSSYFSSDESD

Row | Compound | A172 Kynurenine cell based assay pIC50
1 | NC(=O)N1CCC(c2c[nH]c3ccccc23)CC1 [Compound 16] | + (+ = pIC50 4.00-4.99)
2 | Cc1[nH]c2ccccc2c1C1CCN(C(=O)C2CCCO2)CC1 (stereo not shown) [Compound 17] | +− (+− = pIC50 <4.00)
3 | CCCCS(=O)(=O)N1CC=C(c2c[nH]c3cc(F)ccc23)CC1 [Compound 18] | ++ (++ = pIC50 5.00-5.99)
4 | O=C(Cc1cccs1)N1CCC(c2c[nH]c3ccccc23)CC1 [Compound 19] | +− (+− = pIC50 <4.00)
5 | O=S(=O)(c1ccccc1Br)N1CCC(c2c[nH]c3ccccc23)CC1 [Compound 21] | + (+ = pIC50 4.00-4.99)
6 | CS(=O)(=O)N1CCC(c2c[nH]c3cc(F)ccc23)CC1 [Compound 22] | +++ (+++ = pIC50 ≥6.00)
7 | Cc1[nH]c2ccccc2c1C1CCN(S(=O)(=O)c2ccc([N+](=O)[O-])cc2)CC1 [Compound 25] | +− (+− = pIC50 <4.00)
8 | O=S(=O)(c1cc(C(F)(F)F)ccc1C(F)(F)F)N1CCC(c2c[nH]c3ccc(F)cc23)CC1 [Compound 26] | +− (+− = pIC50 <4.00)
9 | COc1ccc(Br)cc1S(=O)(=O)N1CCC(c2c[nH]c3ccc(F)cc23)CC1 [Compound 27] | + (+ = pIC50 4.00-4.99)
10 | Cc1cccc2c(C3CCN(C(=O)c4cc(Cl)cnc4Cl)CC3)c[nH]c12 [Compound 28] | +− (+− = pIC50 <4.00)
11 | CCCS(=O)(=O)N1CCC(c2c[nH]c3cc(F)ccc23)CC1 [Compound 292] | ++ (++ = pIC50 5.00-5.99)

target: Recombinant human TDO (Homo sapiens, UniProt P48775); assay: hTDO biochemical coupled assay; conditions: 330 μM L-tryptophan, coupled with kynurenine formamidase
Description: (§1) Exemplary compounds of the invention were prepared, and tested to determine their effect as TDO and/or IDO inhibitors. Two different assays were employed: 1. a cell-based assay for detecting the effect of test compounds on kynurenine production in two different cancer cell types. This assay utilised cancer cells which expressed either TDO or IDO and as such was used as a means of testing compound activity at these two enzymes in a cell-based context. 2. a TDO and IDO biochemical coupled assay which utilised recombinantly produced and purified TDO and IDO enzymes in combination with the enzyme formamidase. This coupled enzyme system allowed conversion of N-formylkynurenine produced by TDO or IDO activity to kynurenine which was then quantified by fluorescence following addition of Erhlich's Reagent The protocols for these are set out below.
Recombinant human IDO or TDO was incubated in 50 mM KPO4 (pH 7.0), 0.5 mM EGTA, 0.5 mM EDTA, 0.05% Triton™ X100, 20 mM ascorbate, 10 μM methylene blue, 500 U/ml catalase, 50 μg/ml KynB (kynurenine formamidase). TDO assays were carried out in the presence of 330 μM L-tryptophan, while IDO assays had the addition of 45 μM L-tryptophan. After incubation for 17 minutes at room temperature the reactions were stopped by the addition of Erhlich's reagent and incubated at room temperature for 5 minutes before the fluorescence was read (Ex475, Em530).

Sequence of Recombinant human TDO (P48775 whole entry): as above

Row | Compound | hTDO biochemical assay pIC50
12 | NC(=O)N1CCC(c2c[nH]c3ccccc23)CC1 [Compound 16] | +− (+− = pIC50 <4.00)
13 | Cc1[nH]c2ccccc2c1C1CCN(C(=O)C2CCCO2)CC1 (stereo not shown) [Compound 17] | +− (+− = pIC50 <4.00)
14 | CCCCS(=O)(=O)N1CC=C(c2c[nH]c3cc(F)ccc23)CC1 [Compound 18] | + (+ = pIC50 4.00-4.99)
15 | O=C(Cc1cccs1)N1CCC(c2c[nH]c3ccccc23)CC1 [Compound 19] | +− (+− = pIC50 <4.00)
16 | O=S(=O)(c1ccccc1Br)N1CCC(c2c[nH]c3ccccc23)CC1 [Compound 21] | +− (+− = pIC50 <4.00)
17 | CS(=O)(=O)N1CCC(c2c[nH]c3cc(F)ccc23)CC1 [Compound 22] | + (+ = pIC50 4.00-4.99)
18 | Cc1[nH]c2ccccc2c1C1CCN(S(=O)(=O)c2ccc([N+](=O)[O-])cc2)CC1 [Compound 25] | +− (+− = pIC50 <4.00)
19 | O=S(=O)(c1cc(C(F)(F)F)ccc1C(F)(F)F)N1CCC(c2c[nH]c3ccc(F)cc23)CC1 [Compound 26] | +− (+− = pIC50 <4.00)
20 | COc1ccc(Br)cc1S(=O)(=O)N1CCC(c2c[nH]c3ccc(F)cc23)CC1 [Compound 27] | +− (+− = pIC50 <4.00)
21 | Cc1cccc2c(C3CCN(C(=O)c4cc(Cl)cnc4Cl)CC3)c[nH]c12 [Compound 28] | +− (+− = pIC50 <4.00)
22 | CCCS(=O)(=O)N1CCC(c2c[nH]c3cc(F)ccc23)CC1 [Compound 292] | + (+ = pIC50 4.00-4.99)

target: Recombinant human IDO (Homo sapiens, UniProt P14902); assay: hIDO biochemical coupled assay; conditions: 45 μM L-tryptophan, coupled with kynurenine formamidase
Description: as §1
Recombinant human IDO or TDO was incubated in 50 mM KPO4 (pH 7.0), 0.5 mM EGTA, 0.5 mM EDTA, 0.05% Triton™ X100, 20 mM ascorbate, 10 μM methylene blue, 500 U/ml catalase, 50 μg/ml KynB (kynurenine formamidase).

Sequence of Recombinant human IDO (P14902 whole entry): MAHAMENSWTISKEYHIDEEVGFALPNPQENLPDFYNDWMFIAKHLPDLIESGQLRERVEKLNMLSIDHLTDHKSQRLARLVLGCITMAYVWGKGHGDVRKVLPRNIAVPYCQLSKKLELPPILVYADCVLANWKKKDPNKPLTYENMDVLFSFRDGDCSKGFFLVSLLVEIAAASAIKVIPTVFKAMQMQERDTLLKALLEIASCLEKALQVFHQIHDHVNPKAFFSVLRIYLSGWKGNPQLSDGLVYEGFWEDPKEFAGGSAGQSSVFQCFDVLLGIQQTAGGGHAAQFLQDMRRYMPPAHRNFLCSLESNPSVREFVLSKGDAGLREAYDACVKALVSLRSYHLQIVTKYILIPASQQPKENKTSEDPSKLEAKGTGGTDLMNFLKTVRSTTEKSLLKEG

Row | Compound | hIDO biocehmical assay pIC50
23 | NC(=O)N1CCC(c2c[nH]c3ccccc23)CC1 [Compound 16] | +− (+− = pIC50 <4.00)
24 | Cc1[nH]c2ccccc2c1C1CCN(C(=O)C2CCCO2)CC1 (stereo not shown) [Compound 17] | +− (+− = pIC50 <4.00)
25 | CCCCS(=O)(=O)N1CC=C(c2c[nH]c3cc(F)ccc23)CC1 [Compound 18] | +− (+− = pIC50 <4.00)
26 | O=C(Cc1cccs1)N1CCC(c2c[nH]c3ccccc23)CC1 [Compound 19] | +− (+− = pIC50 <4.00)
27 | O=S(=O)(c1ccccc1Br)N1CCC(c2c[nH]c3ccccc23)CC1 [Compound 21] | +− (+− = pIC50 <4.00)
28 | CS(=O)(=O)N1CCC(c2c[nH]c3cc(F)ccc23)CC1 [Compound 22] | +− (+− = pIC50 <4.00)
29 | Cc1[nH]c2ccccc2c1C1CCN(S(=O)(=O)c2ccc([N+](=O)[O-])cc2)CC1 [Compound 25] | +− (+− = pIC50 <4.00)
30 | O=S(=O)(c1cc(C(F)(F)F)ccc1C(F)(F)F)N1CCC(c2c[nH]c3ccc(F)cc23)CC1 [Compound 26] | +− (+− = pIC50 <4.00)
31 | COc1ccc(Br)cc1S(=O)(=O)N1CCC(c2c[nH]c3ccc(F)cc23)CC1 [Compound 27] | +− (+− = pIC50 <4.00)
32 | Cc1cccc2c(C3CCN(C(=O)c4cc(Cl)cnc4Cl)CC3)c[nH]c12 [Compound 28] | +− (+− = pIC50 <4.00)

target: T2, IDO (SKOV3 human ovarian adenocarcinoma cells, IFN-γ induced) (Homo sapiens, UniProt P14902); assay: SKOV3 Kynurenine cell based assay; conditions: IDO induced by 500 ng/ml IFN-γ, 500 μM L-tryptophan, 48 hours
T2 construct: IDO expression was induced in the SKOV3 cells by the addition of 500 ng/ml IFN-γ; endogenous in cells; host or cells: SKOV3 human ovarian adenocarcinoma cells, induced with IFN-γ
How it was run: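 Kynurenine in the supernatant, detected by Ehrlich's reagent, served as read-out after 48 h at 37° C with or without test compound. SKOV3 cells (40,000/well) were grown in phenol red-free RPMI, 10% FCS, 2 mM L-glutamine, 500 μM L-tryptophan, with 500 ng/ml IFN-γ to induce IDO.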

T2 sequence (P14902 whole entry): as above

Row | Compound | SKOV3 Kynurenine cell based assay pIC50
33 | NC(=O)N1CCC(c2c[nH]c3ccccc23)CC1 [Compound 16] | +− (+− = pIC50 <4.00)
34 | Cc1[nH]c2ccccc2c1C1CCN(C(=O)C2CCCO2)CC1 (stereo not shown) [Compound 17] | + (+ = pIC50 4.00-4.99)
35 | CCCCS(=O)(=O)N1CC=C(c2c[nH]c3cc(F)ccc23)CC1 [Compound 18] | + (+ = pIC50 4.00-4.99)
36 | O=C(Cc1cccs1)N1CCC(c2c[nH]c3ccccc23)CC1 [Compound 19] | + (+ = pIC50 4.00-4.99)
37 | O=S(=O)(c1ccccc1Br)N1CCC(c2c[nH]c3ccccc23)CC1 [Compound 21] | + (+ = pIC50 4.00-4.99)
38 | CS(=O)(=O)N1CCC(c2c[nH]c3cc(F)ccc23)CC1 [Compound 22] | +− (+− = pIC50 <4.00)
39 | Cc1[nH]c2ccccc2c1C1CCN(S(=O)(=O)c2ccc([N+](=O)[O-])cc2)CC1 [Compound 25] | + (+ = pIC50 4.00-4.99)
40 | O=S(=O)(c1cc(C(F)(F)F)ccc1C(F)(F)F)N1CCC(c2c[nH]c3ccc(F)cc23)CC1 [Compound 26] | + (+ = pIC50 4.00-4.99)
41 | COc1ccc(Br)cc1S(=O)(=O)N1CCC(c2c[nH]c3ccc(F)cc23)CC1 [Compound 27] | + (+ = pIC50 4.00-4.99)
42 | Cc1cccc2c(C3CCN(C(=O)c4cc(Cl)cnc4Cl)CC3)c[nH]c12 [Compound 28] | + (+ = pIC50 4.00-4.99)
43 | CCCS(=O)(=O)N1CCC(c2c[nH]c3cc(F)ccc23)CC1 [Compound 292] | + (+ = pIC50 4.00-4.99)
